# EP0280603A1, “Absolute S confirmation enantiomers of amide derivatives of 3-aminoquinuclidine, process for their preparation and their therapeutical use” (DELALANDE S.A., priority 1987, dated 1988)
# Assays:
# [1] = test system: vomissements induits par le cisplatine; assay: Oral antiemetic activity against cisplatin-induced vomiting in the dog; type: in vivo, chien; conditions: for VOMISSEMENTS % DE DIMINUTION EN NOMBRE / VOMISSEMENTS % DE DIMINUTION EN TOUT OU RIEN / VOMISSEMENTS NOMBRE MOYEN: 6 h observation, 4 dogs; for VOMISSEMENTS NOMBRE MOYEN: control 10,8
# From the text: A titre d'exemple, on étudie ci-après l'activité antiémétique par voie orale du chlorhydrate du N-(quinuclidinyl-3) amino-4 chloro-5 méthoxy-2 benzamide, sous la forme du mélange racémique (code MD 780209), de l'énantiomère lévogyre de configuration S (code MD 200054) et de l'énantiomère dextrogyre de configuration R (code MD 200051), vis-à-vis des vomissements induits par le cisplatine chez le chien.
# La méthode est dérivée de celle décrite par J.A. GYLYS et coll. (Res. Commun. Chem. Pathol. Pharmacol. 1979, 23, n° 1, p. 61-68). Les vomissements sont induits par injection intraveineuse de cisplatine (DCI) à la dose de 3 mg/kg chez des chiens tout-venants, mâle ou femelle, de poids compris entre 10 et 16 kg, à la diète hydrique depuis 24 heures.
# Les composés à tester sont administrés par voie orale 60 minutes après l'injection de cisplatine.
# Les animaux sont alimentés 1 h 30 après le traitement. La durée d'observation est de 6 heures après l'injection de cisplatine.
# [2] = Side effects and toxicity at the active doses (no method described); type: in vivo; conditions: in words, compared with the dextrorotatory enantiomer
# [3] = dog, 30 μ g/kg oral 60 min after cisplatin 3 mg/kg i.v.
# [4] = dog, 7,5 μ g/kg oral 60 min after cisplatin 3 mg/kg i.v.
# [5] = dog, 15 μ g/kg oral 60 min after cisplatin 3 mg/kg i.v.
structure (smiles),measurement,setting,value
"COc1cc(N)c(Cl)cc1C(=O)N[C@H]1CN2CCC1CC2 [MD 200051, N-(quinuclidinyl-3) amino-4 chloro-5 méthoxy-2 benzamide]",VOMISSEMENTS % DE DIMINUTION EN NOMBRE,[1]; [3],"34,9%"
same,VOMISSEMENTS % DE DIMINUTION EN TOUT OU RIEN,[1]; [3],0%
same,VOMISSEMENTS NOMBRE MOYEN,[1]; [3],7
"COc1cc(N)c(Cl)cc1C(=O)N[C@@H]1CN2CCC1CC2 [MD 200054, N-(quinuclidinyl-3) amino-4 chloro-5 méthoxy-2 benzamide]",VOMISSEMENTS % DE DIMINUTION EN NOMBRE,[1]; [4],"95,3%"
same,VOMISSEMENTS % DE DIMINUTION EN TOUT OU RIEN,[1]; [4],75%
same,VOMISSEMENTS NOMBRE MOYEN,[1]; [4],"0,5"
same,inhiber les vomissements induits par des drogues anticancéreuses telles que le cisplatine,"[1]; in words, compared with the antipode MD 200051 and the corresponding racemate",beaucoup plus actif
same,effets secondaires,[2],moins d'effets secondaires
"COc1cc(N)c(Cl)cc1C(=O)NC1CN2CCC1CC2 (racemic) [MD 780209, N-(quinuclidinyl-3) amino-4 chloro-5 méthoxy-2 benzamide, reference compound]",VOMISSEMENTS % DE DIMINUTION EN NOMBRE,[1]; [5],"81,4%"
same,VOMISSEMENTS % DE DIMINUTION EN TOUT OU RIEN,[1]; [5],25%
same,VOMISSEMENTS NOMBRE MOYEN,[1]; [5],2
